The text below walks through data of the METLIN SMRT retention time set (Domingo-Almenara et al. 2019).

This data set can be described thus: gradient 5% acetonitrile 3 min, to 50% in 2 min, to 85% in 15 min, held 3 min, 100 µL/min. The settings on record: column: Zorbax Extend-C18 2.1 x 50 mm; eluents: water / acetonitrile, 0.1% formic acid. An outline of the steps: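 Over 3 months, pure standards in mixtures of ~100 molecules were run by HPLC coupled to a quadrupole time-of-flight mass spectrometer in positive and negative ionization mode. The column was a Zorbax Extend-C18 (2.1 × 50 mm, 1.8 μm) at 100 μL/min, eluted with water and acetonitrile each holding 0.1% formic acid, with 40 μL dead and 900 μL dwell volumes. Retention time was determined from adduct peaks chosen by software and checked manually.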
Compound `Cn1cc2c3c(cccc31)CN(C(=O)Nc1cc(Cl)ccc1Cl)CC2` came in with an RP-LC retention time of 1170 s.

Regarding `O=C(NCCS(=O)(=O)N1CCN(c2ccccc2)CC1)c1ccc(Br)o1`, the RP-LC retention time was determined as 807 s.

In turn, `COc1cc(NC(=O)c2csc(-c3ccc(C)n3C)n2)cc(OC)c1` showed an RP-LC retention time of 1130 s.

Turning to `COc1cc(NS(=O)(=O)c2ccc(N)cc2)nc(OC)n1`, the RP-LC retention time stood at 680 s. With `O=C(CN1CCc2[nH]c3c(F)c(Cl)ccc3c(=O)c2C1)Nc1cc(F)cc(F)c1` the figure was 699 s; with `Cc1ccc(NC(=O)Cn2c(=O)c(CCC(=O)NC3CCCC3)nc3ccccc32)c(C)c1`, 841 s; with `CC(C)OCCCNC(=O)c1c2c(cn(-c3ccccc3)c1=O)C(=O)CC(C)(C)C2`, 878 s.

The compound `Cc1c(Cl)cccc1NC(=O)Cn1c(=O)cc(-c2nc(C(C)C)no2)c2ccccc21` came in with an RP-LC retention time of 1080 s. With `CCCn1ccc2sc(C)c(C(=O)NC3CCCCC3)c2c1=O` the figure was 884 s; with `COc1ccc(NS(=O)(=O)c2ccc3c(c2)C(=O)N(C)c2ncccc2O3)cc1F`, 891 s; with `CCc1nc2c(=O)n(CC(=O)N3CCCCCC3)nc(C)c2s1`, 706 s.

Turning to `O=C(Nc1ccc(F)cc1F)c1noc2c1CCCC2`, the RP-LC retention time came out at 883 s.

Regarding `CSc1ccc(-c2nc3ccc(C)cn3c2Nc2ccc3c(c2)OCO3)cc1`, the RP-LC retention time was found to be 739 s.

In turn, `CCc1cccc(NC(=O)Cn2c(=O)c3cc(C4CC4)nn3c3ncccc32)c1` displayed an RP-LC retention time of 844 s.

As to `CNC(=O)c1ccc(Nc2c(-c3ccc(OC)c(OC)c3)nc3cnccn23)cc1`, the RP-LC retention time worked out at 606 s.

For the compound `O=C(CCc1c(-c2ccc(F)cc2)nc2ccccn12)Nc1ccccc1C(F)(F)F`, the RP-LC retention time amounted to 691 s. The compound `CCOC(=O)c1c(C)[nH]c(C(=O)N2CCC(CC(=O)N3CCCC3)CC2)c1C` displayed an RP-LC retention time of 694 s.

Compound `Cc1nn(-c2ccccc2)c(C)c1CCc1nnc2sc(-c3ccc(N(C)C)cc3)nn12` displayed an RP-LC retention time of 1020 s.

The compound `CC(=O)c1ccc(NC(=O)Cn2c(=O)nc(NC3CCCC3)c3ccccc32)cc1` gave an RP-LC retention time of 635 s.

Consider `O=C(Nc1ccccc1C(=O)NCCC1=CCCCC1)C1=CSCCO1`, for which the RP-LC retention time turned out to be 1090 s.

`O=C(Cn1c(=O)c(S(=O)(=O)c2ccccc2)cc2ccccc21)NCc1ccccc1Cl` registered an RP-LC retention time of 895 s. Regarding `CCN(CC)CCNc1c(C)cc(CO)c(Cl)c1C`, the RP-LC retention time turned out to be 640 s.

`CCCNC(=O)N1CCN(Cc2nc(-c3ccc(OCC)cc3)oc2C)CC1` had an RP-LC retention time of 661 s.

The compound `Cc1ccc(-n2nc(C)c3c(C)c(CCC(=O)N4CCN(c5ccccn5)CC4)c(C)nc32)cc1` yielded an RP-LC retention time of 756 s.

As to `CCOC(=O)c1sc(NC(=O)C(C)(C)C)nc1-c1ccccc1`, the RP-LC retention time came out at 592 s.

In turn, `O=C(c1c(F)cccc1F)N1CCN=C1N1CCCCC1` returned an RP-LC retention time of 623 s. Consider `Cc1scc2nc(C(=O)NC3CCCCC3)nc(N(C)C)c12`, for which the RP-LC retention time came to 652 s. Take `Cc1cccc(NC(=O)C2CCN(S(=O)(=O)c3cc(C(=O)N4CCOCC4)cs3)CC2)n1`: the RP-LC retention time is 648 s. `COc1ccc(-n2nc(C(N)=O)c(=O)cc2OC)cc1` came in with an RP-LC retention time of 581 s. On to `CCOC(=O)c1ccccc1NC(=O)NCC(c1cccnc1)c1cn(C)c2ccccc12` (stereo not given), for which the RP-LC retention time came out at 824 s. Regarding `Cc1ccc(NC(=O)N2CCCC2c2nc(-c3ccc(F)cc3F)no2)c(C)c1` (stereo not given), the RP-LC retention time came out at 1050 s. With `COC(=O)c1ccc2c(=O)n(-c3cccc(OC)c3)c(N3CCSC3)nc2c1` the figure was 1020 s; with `CNC(=O)CSc1nc(-c2ccccc2)c(NC(=O)COc2ccccc2F)s1`, 806 s. As to `CN(Cc1ccccc1)C(=O)C1(c2ccc(NC(=O)C3CC3)cc2)CCCCC1`, the RP-LC retention time is 1060 s.

For the compound `CCOC(=O)C1=C(CN2CCN(C(C)CC)CC2)NC(=O)NC1c1ccc(Cl)cc1` (stereo not given), the RP-LC retention time turned out to be 663 s. With `CC(C)(C)C(=O)N1CCCC1c1nc2ccccc2s1` (stereo not given) the figure was 932 s; with `Cc1ccsc1CN1CCc2nc(N3CCN(c4ccc(F)cc4)CC3)ncc2C1`, 734 s.

With `Cc1ccc(NC(=O)Cn2nc(N3CCSCC3)c3ccccc3c2=O)cc1Cl`, the RP-LC retention time was 970 s. The result for `COc1cc(NC(=O)CSC2CCc3ccccc3NC2=O)cc(OC)c1` (stereo not given) reads 796 s; that for `CCn1nccc1C1CCCN1C(=O)c1c(Cl)cnn1C` (stereo not given), 677 s. The result for `Cn1cc(C2=CCN(C(=O)NCc3cccc(F)c3)CC2)c2cccnc21` reads 791 s.

`CCOCc1nc(C2CCCN(C(=O)NC3CCCC3)C2)no1` (stereo not given): the RP-LC retention time is 766 s. With `CCc1ccc(C(C)NC(=O)c2ccnc3c(NC(C)=O)cccc23)cc1` (stereo not given) the figure was 896 s; with `CCCn1cnnc1C1CCN(Cc2cccc(OCC)c2)CC1`, 601 s. `COc1cc2c(cc1OC)C(C(=O)N1CCOCC1)C(c1ccc(SC)cc1)N(C)C2=O` (stereo not given) yielded an RP-LC retention time of 726 s.

`Cc1ccc2nc(C(=O)N3CCC(C)CC3)cc(Nc3ccc(N(C)C)cc3)c2c1` returned an RP-LC retention time of 745 s.

As to `O=C(NCCc1ccccc1)C1CCN(C(=O)c2ncn3c2COC(c2ccccc2)C3)CC1` (stereo not given), the RP-LC retention time was found to be 708 s. The result for `CC(=O)NCCc1c(Cc2ccccc2)[nH]c2ccccc12` reads 876 s; that for `CCN1C(=O)C(CC(=O)NC2CCCCCC2)Sc2ncccc21` (stereo not given), 804 s.

Take `COc1ccc(CCNS(=O)(=O)c2cccc3cccnc23)cc1OC`: the RP-LC retention time worked out at 745 s.

The compound `Cc1ccc2nc(N3CCN(C)CC3)c(-c3noc(-c4ccccc4)n3)cc2c1` had an RP-LC retention time of 715 s.

In the case of `COC(=O)c1c(C)[nH]c(C(=O)N2CCC(CC(=O)NCc3ccc4c(c3)OCO4)CC2)c1C`, the RP-LC retention time is 770 s. With `CC(C)c1cccc(NS(=O)(=O)c2cc3n(c2)CCCNC3=O)c1` the figure was 723 s; with `Cc1ccc(-c2nc(-c3ccc4nnc(C)n4c3)no2)cc1C`, 1130 s. As to `Cc1c(-c2cccc(NC(=O)c3cccc(Br)c3)c2)nc2ncccn12`, the RP-LC retention time stood at 696 s. `CCc1ccc(C2=C(C)C(N3CCCN(C(=O)CCOC)CC3)=NS2(=O)=O)cc1` gave an RP-LC retention time of 795 s. With `CCn1cc(C)c(C(=O)O)c1CC(=O)N1CCOCC1` the figure was 619 s; with `Cc1ccccc1Nc1c(-c2ccc(Cl)cc2)nc2ccccn12`, 804 s; with `Cc1ccc(NC(=O)C2CCCN(c3nc4c(s3)c(C)nn4-c3cccc(F)c3)C2)c(C)c1` (stereo not given), 1280 s. With `Cc1ccc(CS(=O)(=O)N2CCC(CN3CCCC(C)C3)CC2)cc1C` (stereo not given) the figure was 717 s; with `c1ccc(CN2CCCC(OCc3nc(-c4ccncc4)no3)C2)nc1` (stereo not given), 577 s; with `CCOC(=O)N1CCN(S(=O)(=O)c2cn(C)c(=O)n(C)c2=O)CC1`, 621 s. With `CCCn1c(C)cnc1CC1CCN(S(=O)(=O)c2ccc3c(c2)OCCO3)CC1` the figure was 560 s; with `CCc1ccc2nc(Nc3ncc4c(n3)CC(c3cccc(Cl)c3)CC4=O)nc(C)c2c1` (stereo not given), 896 s. On to `CNC(=O)c1cc2cc(Cl)ccc2[nH]1`, for which the RP-LC retention time worked out at 741 s. The result for `O=C(Nc1cnc(N2CCCCC2)nc1)c1cc(F)ccc1F` reads 952 s; that for `Cc1oc(-c2[nH]ncc2C(=O)N2CCOCC2)cc1S(=O)(=O)N1CCN(C)CC1`, 553 s; that for `CC(C)n1cnc2cc(CNC(=O)Cc3ccsc3)ccc21`, 582 s. `CCOc1ccc(S(=O)(=O)N2CCCC(C(=O)NCCO)C2)cc1` (stereo not given) showed an RP-LC retention time of 662 s.

Regarding `CC1=NS(=O)(=O)N(Cc2ccccc2)C=C1C(=O)OCc1ccc(F)cc1F`, the RP-LC retention time is 1090 s. In turn, `COc1ccc(OC)c(-c2cn3ccn(-c4cc(C)cc(C)c4)c(=O)c3n2)c1` came in with an RP-LC retention time of 975 s. With `COc1ccc(C)cc1N(C)C(=O)Cn1ccc2c(=O)n(C)c(=O)n(C)c21` the figure was 714 s; with `COc1cn(CC(=O)Nc2ccccc2C)c(CSc2nc(C)cs2)cc1=O`, 628 s. With `Cc1ccc(NC(=O)Cn2c(=O)n(-c3ccccc3)c(=O)c3c2cc(C)n3C)cc1F` the figure was 868 s; with `CCn1nccc1C(=O)N1CCC(c2nc3ccncc3n2CC(C)C)C1` (stereo not given), 555 s; with `CCn1cnc(S(=O)(=O)N2CCCC(C(=O)NCCN3CCCCCC3)C2)c1` (stereo not given), 583 s.

Turning to `FC(F)(F)c1ccc(Nc2nc3ccc(Oc4ccnc(-c5ncc(C(F)(F)F)[nH]5)c4)cc3[nH]2)cc1`, the RP-LC retention time came to 844 s.

Take `CCCNC(=O)C1CCN(c2ccc(SCC(=O)Nc3cc(C)c(Cl)cc3OC)nn2)CC1`: the RP-LC retention time stood at 766 s. The result for `COc1ccc2c(c1)c(N1CCCC1=O)c(C(=O)NCCc1ccc(OC)c(OC)c1OC)n2C` reads 858 s; that for `COc1cc(NC(=O)CCc2c(-c3ccc(Cl)cc3)nc3ccccn23)cc(OC)c1OC`, 642 s.
